This note sets out measurements from patent US20260325685A1, “Radiopharmaceutical Compositions Targeting Carbonic Anhydrase IX and Uses Thereof” (RayzeBio, Inc., priority 2023, published 2026).

For assay [1], the target named is T1, human CA-IX (Homo sapiens, UniProt Q16790).
T1 construct: purchased Acro CA9-H82E3
In words: Surface Plasmon Resonance (SPR) binding kinetics to recombinant human CA-IX (Biacore 8K, single-cycle kinetics, 1:1 binding model). The method in brief:
(§1)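 At 25° C, compound was injected at nine concentrations from 100 to 0.39 nM (PBS-P+ pH 7.4, 1% DMSO) over streptavidin-captured recombinant human CA-IX or CA-XII (1200-1800 RU). Association 120 s, dissociation 1200 s, single-cycle format; association and dissociation constants from 1:1 kinetic fits.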

The target of assay [2] is T2, human CA-XII (Homo sapiens, UniProt O43570).
T2 construct: purchased Creative BioMart CA12-261H
Put plainly: Surface Plasmon Resonance (SPR) binding kinetics to recombinant human CA-XII (Biacore 8K, single-cycle kinetics, 1:1 binding model). The method in brief: as §1

Where [3] appears, read: Chelated Metal: Lu-175; SPR, 25° C., pH 7.4; read-out: CAIX KD.
The mark [4] stands for this setting: Chelated Metal: Lu-175, 25° C., pH 7.4, read-out: CAXII KD.
[5] abbreviates: read-out: CAIX KD; Chelated Metal: Lu-175; SPR, 25° C., pH 7.4.
The mark [6] stands for this setting: read-out: CAXII KD, Chelated Metal: Lu-175, 25° C., pH 7.4.

Read-outs that look alike come from different tables or passages of the source. Some results are limits rather than exact numbers.

T2 sequence (O43570 25-354): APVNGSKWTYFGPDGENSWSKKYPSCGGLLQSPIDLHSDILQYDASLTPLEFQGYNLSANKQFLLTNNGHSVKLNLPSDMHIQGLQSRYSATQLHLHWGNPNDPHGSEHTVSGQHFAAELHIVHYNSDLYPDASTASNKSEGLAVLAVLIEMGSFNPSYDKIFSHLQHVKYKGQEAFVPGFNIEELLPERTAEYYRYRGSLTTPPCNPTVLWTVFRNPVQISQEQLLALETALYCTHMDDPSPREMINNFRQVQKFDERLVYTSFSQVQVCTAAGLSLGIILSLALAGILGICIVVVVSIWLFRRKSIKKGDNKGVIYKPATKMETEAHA

As for `N[C@@H](CC(=O)N[C@@H](CC(=O)N1CCN(C(=O)CCOCCOCCOCCOCCN(CCOCCOCCOCCOCCC(=O)N2CCN(C(=O)C[C@H](NC(=O)C[C@H](N)C(=O)O)C(=O)O)[C@H](C(=O)NCCn3cc(C45CC(C(=O)Nc6nnc(S(N)(=O)=O)s6)(C4)C5)nn3)C2)C(=O)CNC(=O)CN2CCN(CC(=O)O)CCN(CC(=O)O)CCN(CC(=O)O)CC2)C[C@H]1C(=O)NCCn1cc(C23CC(C(=O)Nc4nnc(S(N)(=O)=O)s4)(C2)C3)nn1)C(=O)O)C(=O)O.[Lu+3]` [Compound 131.5], the equilibrium dissociation constant (Kd) in assay [1] (setting [3]) and in assay [2] (setting [4]) was below 1 nM each time.
As for `NS(=O)(=O)c1nnc(NC(=O)C23CC(c4cn(CCNC(=O)[C@@H]5CN(C(=O)CN6CCN(CC(=O)O)CCN(CC(=O)O)CCN(CC(=O)O)CC6)CCN5C(=O)C[C@H](NC(=O)C[C@H](NC(=O)c5coc(C(F)(F)F)n5)C(=O)O)C(=O)O)nn4)(C2)C3)s1.[Lu+3]` [Compound 109.17], the dissociation constant Kd in assay [1] (setting [3]) is 2.5 to 10 nM; in assay [2] (setting [4]) it was above 10 nM.
For `CC(CCC(=O)N[C@@H](CC(=O)N[C@@H](CC(=O)N1CCN(C(=O)CN2CCN(CC(=O)O)CCN(CC(=O)O)CCN(CC(=O)O)CC2)CC1CCCCn1cc(CCCC(=O)Nc2nnc(S(N)(=O)=O)s2)nn1)C(=O)O)C(=O)O)(c1ccc(O)cc1)c1ccc(O)cc1.[Lu+3]` (some centres unmarked) [Compound 104], the Kd in assay [1] (setting [5]) is 1 to 2.5 nM; in assay [2] (setting [6]), 2.5 to 10 nM.
With `Cc1c(C(F)(F)F)n[nH]c1C(=O)N1CCC(C(=O)O)(C(=O)NCC(=O)N2CCN(C(=O)CN3CCN(CC(=O)O)CCN(CC(=O)O)CCN(CC(=O)O)CC3)C[C@H]2C(=O)NCCn2cc(C34CC(C(=O)Nc5nnc(S(N)(=O)=O)s5)(C3)C4)nn2)CC1.[Lu+3]` [Compound 112.13], the equilibrium dissociation constant (Kd) in assay [1] (setting [3]) was 1 to 2.5 nM; in assay [2] (setting [4]), above 10 nM.
For `NS(=O)(=O)c1nnc(NC(=O)C23CCC(c4cn(CCNC(=O)[C@@H]5CN(C(=O)CN6CCN(CC(=O)O)CCN(CC(=O)O)CCN(CC(=O)O)CC6)CCN5C(=O)CC[C@H](NC(=O)C[C@H](NC(=O)CCc5ccc(O)cc5)C(=O)O)C(=O)O)nn4)(CC2)CC3)s1.[Lu+3]` [Compound 109.43] the same measures were below 1 nM and below 1 nM.
Regarding `CC(CCCC(=O)N1CCC(C(N)=O)(C(=O)NCC(=O)NC2(C(=O)NCCn3cc(C45CCC(c6cn7nc(S(N)(=O)=O)sc7n6)(CC4)CC5)nn3)CCN(C(=O)CC[C@H](C(=O)O)N3CCN(CC(=O)O)CCN(CC(=O)O)CCN(CC(=O)O)CC3)CC2)CC1)(c1ccc(O)cc1)c1ccc(O)cc1.[Lu+3]` [Compound 127.6], the dissociation constant (Kd) in assay [1] (setting [3]) and in assay [2] (setting [4]) was below 1 nM each time.
As to `NS(=O)(=O)c1nnc(NC(=O)C23CCC(c4cn(CCNC(=O)[C@@H]5CN(C(=O)CN6CCN(CC(=O)O)CCN(CC(=O)O)CCN(CC(=O)O)CC6)CCN5C(=O)CC[C@H](NC(=O)C[C@H](NC(=O)c5cc(C(F)(F)F)[nH]n5)C(=O)O)C(=O)O)nn4)(CC2)CC3)s1.[Lu+3]` [Compound 109.47], the Kd in assay [1] (setting [3]) and in assay [2] (setting [4]) was below 1 nM in each case.
Take `NS(=O)(=O)c1nnc(NC(=O)C23CCC(c4cn(CCNC(=O)[C@@H]5CN(C(=O)CN6CCN(CC(=O)O)CCN(CC(=O)O)CCN(CC(=O)O)CC6)CCN5C(=O)CC[C@H](NC(=O)C[C@H](NC(=O)CCC5CCCCCC5)C(=O)O)C(=O)O)nn4)(CC2)CC3)s1.[Lu+3]` [Compound 109.46]: the Kd in assay [1] (setting [3]) and in assay [2] (setting [4]) was below 1 nM throughout.
As to `CC(CCC(=O)N[C@@H](CC(=O)N[C@@H](CC(=O)N1CCN(C(=O)CN2CCN(CC(=O)O)CCN(CC(=O)O)CCN(CC(=O)O)CC2)C[C@@H]1CCCCn1cc(C23CCC(C(=O)Nc4nnc(S(N)(=O)=O)s4)(CC2)C3)nn1)C(=O)O)C(=O)O)(c1ccc(O)cc1)c1ccc(O)cc1` [Compound 104.2], the Kd in assay [1] (Chelated Metal: None; SPR, 25° C., pH 7.4; read-out: CAIX KD) is below 1 nM; in assay [2] (Chelated Metal: None, 25° C., pH 7.4, read-out: CAXII KD), below 1 nM. Further, the “Ratio (CAXII/CAIX)” value in assay [1] (KD ratio CAXII/CAIX; Chelated Metal: None) was “* (1 < * < 5)”.
Regarding `NS(=O)(=O)c1nnc(NC(=O)C23CCC(c4cn(CCNC(=O)[C@@H]5CN(C(=O)CN6CCN(CC(=O)O)CCN(CC(=O)O)CCN(CC(=O)O)CC6)CCN5C(=O)CC[C@H](NC(=O)C[C@H](NC(=O)c5coc(C(F)(F)F)n5)C(=O)O)C(=O)O)nn4)(CC2)CC3)s1.[Lu+3]` [Compound 109.59], the dissociation constant (Kd) in assay [1] (setting [3]) and in assay [2] (setting [4]) was below 1 nM throughout.
Consider `NS(=O)(=O)c1nnc(NC(=O)C23CC(c4cn(CCNC(=O)[C@@H]5CN(C(=O)CN6CCN(CC(=O)O)CCN(CC(=O)O)CCN(CC(=O)O)CC6)CCN5C(=O)C[C@H](NC(=O)C[C@H](NC(=O)c5n[nH]nc5C(F)(F)F)C(=O)O)C(=O)O)nn4)(C2)C3)s1.[Lu+3]` [Compound 109.28], for which the Kd in assay [1] (setting [3]) was below 1 nM; in assay [2] (setting [4]) it was 1 to 2.5 nM.
In the same order, the values of `CC(CCCC(=O)N1CCC(C(N)=O)(C(=O)NCC(=O)NC2(C(=O)NCCn3cc(C45CC(C(=O)Nc6nnc(S(N)(=O)=O)s6)(C4)C5)nn3)CCN(C(=O)CCOCCOCCOCCOCCOCCOCCOCCOCCNC(=O)CN3CCN(CC(=O)O)CCN(CC(=O)O)CCN(CC(=O)O)CC3)CC2)CC1)(c1ccc(O)cc1)c1ccc(O)cc1.[Lu+3]` [Compound 129.5] are below 1 nM and above 10 nM.
In the same order, the values of `CC(CCCC(=O)N1CCC2(CC2)C[C@H]1C(=O)N[C@@H](CC(=O)N1CCN(C(=O)CN2CCN(CC(=O)O)CCN(CC(=O)O)CCN(CC(=O)O)CC2)C[C@@H]1C(=O)NCCn1cc(C23CC(C(=O)Nc4nnc(S(N)(=O)=O)s4)(C2)C3)nn1)C(=O)O)(c1ccc(O)cc1)c1ccc(O)cc1.[Lu+3]` [Compound 107.33] are below 1 nM and above 10 nM.
For `NS(=O)(=O)c1nnc(NC(=O)C23CCC(c4cn(CCNC(=O)[C@@H]5CN(C(=O)CN6CCN(CC(=O)O)CCN(CC(=O)O)CCN(CC(=O)O)CC6)CCN5C(=O)CC[C@H](NC(=O)C[C@H](NC(=O)c5ccc(S(F)(F)(F)(F)F)cc5)C(=O)O)C(=O)O)nn4)(CC2)CC3)s1.[Lu+3]` [Compound 109.58] the same measures were below 1 nM and below 1 nM.
On to `CC(CCC(=O)N[C@@H](CC(=O)N[C@@H](CC(=O)N[C@@H](CCCCn1cc(C23CCC(C(=O)Nc4nnc(S(N)(=O)=O)s4)(CC2)C3)nn1)C(=O)NCCOCCNC(=O)CCC(C(=O)O)N1CCN(CC(=O)O)CCN(CC(=O)O)CCN(CC(=O)O)CC1)C(=O)O)C(=O)O)(c1ccc(O)cc1)c1ccc(O)cc1.[Lu+3]` (some centres unmarked) [Compound 100.15], for which the dissociation constant Kd in assay [1] (setting [3]) and in assay [2] (setting [4]) was below 1 nM throughout.
Take `NS(=O)(=O)c1nnc(NC(=O)C23CC(c4cn(CCNC(=O)[C@@H]5CN(C(=O)CN6CCN(CC(=O)O)CCN(CC(=O)O)CCN(CC(=O)O)CC6)CCN5C(=O)C[C@H](NC(=O)C[C@H](NC(=O)CCCc5ccc(Cl)cc5)C(=O)O)C(=O)O)nn4)(C2)C3)s1.[Lu+3]` [Compound 109.37]: the figures for the equilibrium dissociation constant (Kd) in assay [1] (setting [3]) and in assay [2] (setting [4]) were below 1 nM and 2.5 to 10 nM, respectively.
For the molecule `NS(=O)(=O)c1nnc(NC(=O)C23CC(c4cn(CCNC(=O)[C@@H]5CN(C(=O)CN6CCN(CC(=O)O)CCN(CC(=O)O)CCN(CC(=O)O)CC6)CCN5C(=O)C[C@H](NC(=O)C[C@H](NC(=O)c5cccc(C6CC6)c5)C(=O)O)C(=O)O)nn4)(C2)C3)s1.[Lu+3]` [Compound 109], the Kd was below 1 nM in assay [1] (setting [5]) and 2.5 to 10 nM in assay [2] (setting [6]).
For `NS(=O)(=O)c1nnc(NC(=O)C23CC(c4cn(CCNC(=O)[C@@H]5CN(C(=O)CN6CCN(CC(=O)O)CCN(CC(=O)O)CCN(CC(=O)O)CC6)CCN5C(=O)C[C@H](NC(=O)C[C@H](NC(=O)c5ccc(C6CC6)nc5)C(=O)O)C(=O)O)nn4)(C2)C3)s1.[Lu+3]` [Compound 109.12], the results for the dissociation constant Kd in assay [1] (setting [3]) and in assay [2] (setting [4]) were 1 to 2.5 nM and 2.5 to 10 nM, respectively.
For `CC(CCCOc1cc(NC(CC(=O)N[C@@H](CCCCn2cc(CCCC(=O)Nc3nnc(S(N)(=O)=O)s3)nn2)C(=O)NCCOCCOCCNC(=O)CN2CCN(CC(=O)O)CCN(CC(=O)O)CCN(CC(=O)O)CC2)C(=O)O)cc(C(=O)O)c1)(c1ccc(O)cc1)c1ccc(O)cc1.[Lu+3]` (some centres unmarked) [Compound 102.7], the figures for the dissociation constant (Kd) in assay [1] (setting [3]) and in assay [2] (setting [4]) were below 1 nM and 2.5 to 10 nM, respectively.
In the same order, the values of `NS(=O)(=O)c1nnc(CC(=O)C23CC(c4cn(CCNC(=O)[C@H]5COCCN5C(=O)CC[C@H](NC(=O)[C@H](CCCCNC(=O)CN5CCN(CC(=O)O)CCN(CC(=O)O)CCN(CC(=O)O)CC5)NC(=O)c5n[nH]c6ccccc56)C(=O)O)nn4)(C2)C3)s1.[Lu+3]` [Compound 118.4] are 1 to 2.5 nM and above 10 nM.
For `NS(=O)(=O)c1nnc(NC(=O)C23CC(c4cn(CCNC(=O)[C@@H]5CN(C(=O)CN6CCN(CC(=O)O)CCN(CC(=O)O)CCN(CC(=O)O)CC6)CCN5C(=O)CNC(=O)C5(C(=O)O)CCN(C(=O)CCc6n[nH]c7ccccc67)CC5)nn4)(C2)C3)s1.[Lu+3]` [Compound 112.4] the same measures were 2.5 to 10 nM and above 10 nM.
As for `CC(CCNC(=O)c1cnc(N[C@@H](CC(=O)N2CCN(C(=O)CN3CCN(CC(=O)O)CCN(CC(=O)O)CCN(CC(=O)O)CC3)C[C@@H]2C(=O)NCCn2cc(C34CC(C(=O)Nc5nnc(S(N)(=O)=O)s5)(C3)C4)nn2)C(=O)O)nc1)(c1ccc(O)cc1)c1ccc(O)cc1.[Lu+3]` [Compound 111.1], the Kd in assay [1] (setting [3]) is 1 to 2.5 nM; in assay [2] (setting [4]) it was above 10 nM.
For `CNC(=O)C1(C(=O)NCC(=O)N2CCN(C(=O)CN3CCN(CC(=O)O)CCN(CC(=O)O)CCN(CC(=O)O)CC3)C[C@@H]2C(=O)NCCn2cc(C34CC(C(=O)Nc5nnc(S(N)(=O)=O)s5)(C3)C4)nn2)CCN(C(=O)CCCC(C)(c2ccc(O)cc2)c2ccc(O)cc2)CC1.[Lu+3]` [Compound 107.34] the same measures were below 1 nM and above 10 nM.
